Data published in ChEMBL document CHEMBL4138123, “Design, synthesis and biological evaluation of novel pyrazolochalcones as potential modulators of PI3K/Akt/mTOR pathway and inducers of apoptosis in breast cancer cells” (Eur J Med Chem, 2017).

How the values were obtained:
Format in all cases: functional
Malme-3M [1] = assay: Cytotoxicity against human MALME-3M cells assessed as growth inhibition after 48 hrs by sulforhodamine B assay
SF-268 = assay: Cytotoxicity against human SF268 cells assessed as cell growth at 0.1 uM after 48 hrs by sulforhodamine B assay relative to control; details: SF-268, 48 h, read-out: Activity
RXF 393 = assay: Cytotoxicity against human RXF393 cells assessed as cell growth at 1 uM after 48 hrs by sulforhodamine B assay relative to control; details: RXF 393, 48 h, read-out: Activity
MDA-MB-435 = assay: Cytotoxicity against human MDA-MB-435 cells assessed as growth inhibition after 48 hrs by sulforhodamine B assay; details: MDA-MB-435, 48 h
DU-145 [2] = assay: Cytotoxicity against human DU145 cells assessed as growth inhibition after 48 hrs by sulforhodamine B assay; details: DU-145, 48 h; for CC50: read-out: LC50 (the source's name)
COLO 205 [3] = assay: Cytotoxicity against human COLO205 cells assessed as cell growth at 100 uM after 48 hrs by sulforhodamine B assay relative to control; details: COLO 205, 48 h, read-out: Activity
HOP-62 = assay: Cytotoxicity against human HOP62 cells assessed as cell growth at 0.01 uM after 48 hrs by sulforhodamine B assay relative to control; details: HOP-62, 48 h, read-out: Activity
TK-10 [4] = assay: Cytotoxicity against human TK10 cells assessed as cell growth at 10 uM after 48 hrs by sulforhodamine B assay relative to control; details: TK-10, 48 h, read-out: Activity
MCF7 = assay: Cytotoxicity against human MCF7 cells assessed as cell growth at 0.01 uM after 48 hrs by sulforhodamine B assay relative to control; details: MCF7, 48 h, read-out: Activity
RPMI-8226 = assay: Cytotoxicity against human RPMI8226 cells assessed as cell growth at 0.01 uM after 48 hrs by sulforhodamine B assay relative to control; details: RPMI-8226, 48 h, read-out: Activity
NCI-H23 = assay: Cytotoxicity against human NCI-H23 cells assessed as cell growth at 10 uM after 48 hrs by sulforhodamine B assay relative to control; details: NCI-H23, 48 h, read-out: Activity
TK-10 [5] = assay: Cytotoxicity against human TK10 cells assessed as cell growth at 0.1 uM after 48 hrs by sulforhodamine B assay relative to control; details: TK-10, 48 h, read-out: Activity
MDA-MB-468 = assay: Cytotoxicity against human MDA-MB-468 cells assessed as growth inhibition after 48 hrs by sulforhodamine B assay; details: MDA-MB-468, 48 h
OVCAR-3 = assay: Cytotoxicity against human OVCAR3 cells assessed as cell growth at 0.01 uM after 48 hrs by sulforhodamine B assay relative to control; details: OVCAR-3, 48 h, read-out: Activity
SK-MEL-28 = assay: Cytotoxicity against human SK-MEL-28 cells assessed as cell growth at 0.1 uM after 48 hrs by sulforhodamine B assay relative to control; details: SK-MEL-28, 48 h, read-out: Activity
SK-MEL-5 [6] = assay: Cytotoxicity against human SK-MEL-5 cells assessed as cell growth at 0.1 uM after 48 hrs by sulforhodamine B assay relative to control; details: SK-MEL-5, 48 h, read-out: Activity
MDA-MB-231 = assay: Cytotoxicity against human MDA-MB-231 cells assessed as cell growth at 1 uM after 48 hrs by sulforhodamine B assay relative to control; details: MDA-MB-231, 48 h, read-out: Activity
T47D = assay: Cytotoxicity against human T47D cells assessed as cell growth at 100 uM after 48 hrs by sulforhodamine B assay relative to control; details: read-out: Activity
NCI-H322M [7] = assay: Cytotoxicity against human NCI-H322M cells assessed as cell growth at 1 uM after 48 hrs by sulforhodamine B assay relative to control; details: read-out: Activity
DU-145 [8] = assay: Cytotoxicity against human DU145 cells assessed as cell growth at 10 uM after 48 hrs by sulforhodamine B assay relative to control; details: DU-145, 48 h, read-out: Activity
NCI-H322M [9] = assay: Cytotoxicity against human NCI-H322M cells assessed as growth inhibition after 48 hrs by sulforhodamine B assay; details: for CC50: read-out: LC50 (the source's name)
KM12 [10] = assay: Cytotoxicity against human KM12 cells assessed as cell growth at 1 uM after 48 hrs by sulforhodamine B assay relative to control; details: KM12, 48 h, read-out: Activity
786-0 = assay: Cytotoxicity against human 786-0 cells assessed as cell growth at 0.01 uM after 48 hrs by sulforhodamine B assay relative to control; details: 786-0, 48 h, read-out: Activity
HCT-116 = assay: Cytotoxicity against human HCT116 cells assessed as growth inhibition after 48 hrs by sulforhodamine B assay; details: HCT-116, 48 h
DU-145 [11] = assay: Cytotoxicity against human DU145 cells assessed as cell growth at 1 uM after 48 hrs by sulforhodamine B assay relative to control; details: DU-145, 48 h, read-out: Activity
SK-MEL-5 [12] = assay: Cytotoxicity against human SK-MEL-5 cells assessed as growth inhibition after 48 hrs by sulforhodamine B assay; details: SK-MEL-5, 48 h
UACC-62 = assay: Cytotoxicity against human UACC62 cells assessed as cell growth at 100 uM after 48 hrs by sulforhodamine B assay relative to control; details: UACC-62, 48 h, read-out: Activity
UO-31 = assay: Cytotoxicity against human UO31 cells assessed as growth inhibition after 48 hrs by sulforhodamine B assay; details: UO-31, 48 h
COLO 205 [13] = assay: Cytotoxicity against human COLO205 cells assessed as cell growth at 1 uM after 48 hrs by sulforhodamine B assay relative to control; details: COLO 205, 48 h, read-out: Activity
NCI-H460 = assay: Cytotoxicity against human NCI-H460 cells assessed as cell growth at 0.1 uM after 48 hrs by sulforhodamine B assay relative to control; details: NCI-H460, 48 h, read-out: Activity
Malme-3M [14] = assay: Cytotoxicity against human MALME-3M cells assessed as cell growth at 100 uM after 48 hrs by sulforhodamine B assay relative to control; details: read-out: Activity
NCI-H226 = assay: Cytotoxicity against human NCI-H226 cells assessed as cell growth at 10 uM after 48 hrs by sulforhodamine B assay relative to control; details: NCI-H226, 48 h, read-out: Activity
KM12 [15] = assay: Cytotoxicity against human KM12 cells assessed as cell growth at 0.01 uM after 48 hrs by sulforhodamine B assay relative to control; details: KM12, 48 h, read-out: Activity
NCI-H522 = assay: Cytotoxicity against human NCI-H522 cells assessed as growth inhibition after 48 hrs by sulforhodamine B assay; details: NCI-H522, 48 h
CCRF-CEM = assay: Cytotoxicity against human CCRF-CEM cells assessed as cell growth at 1 uM after 48 hrs by sulforhodamine B assay relative to control; details: read-out: Activity

Structure (SMILES): COc1ccc(-c2cc(/C=C/C(=O)c3cc(OC)c(OC)c(OC)c3)[nH]n2)cc1OC
- GI50 (Malme-3M [1]): 2320 nM
- LC50 (Malme-3M [1]): 47.5 µM
- TGI (Malme-3M [1]): 6.19 µM
- growth at 0.1 µM (SF-268): 93%
- growth at 1 µM (RXF 393): 80%
- GI50 (MDA-MB-435): 1780 nM
- LC50 (MDA-MB-435): 9.2 µM
- TGI (MDA-MB-435): 4.05 µM
- GI50 (DU-145 [2]): 1830 nM
- TGI (DU-145 [2]): 4.12 µM
- CC50 (DU-145 [2]): 9.28 µM
- growth at 100 µM (COLO 205 [3]): -88%
- growth at 0.01 µM (HOP-62): 92%
- growth at 10 µM (TK-10 [4]): 7%
- growth at 0.01 µM (MCF7): 92%
- growth at 0.01 µM (RPMI-8226): 97%
- growth at 10 µM (NCI-H23): -39%
- growth at 0.1 µM (TK-10 [5]): 89%
- GI50 (MDA-MB-468): 1330 nM
- LC50 (MDA-MB-468): 8.03 µM
- TGI (MDA-MB-468): 3270 nM
- growth at 0.01 µM (OVCAR-3): 99%
- growth at 0.1 µM (SK-MEL-28): 91%
- growth at 0.1 µM (SK-MEL-5 [6]): 102%
- growth at 1 µM (MDA-MB-231): 67%
- growth at 100 µM (T47D): -47%
- growth at 1 µM (NCI-H322M [7]): 82%
- growth at 10 µM (DU-145 [8]): -55%
- GI50 (NCI-H322M [9]): 2020 nM
- TGI (NCI-H322M [9]): 6.03 µM
- CC50 (NCI-H322M [9]): 25 µM
- growth at 1 µM (KM12 [10]): 45%
- growth at 0.01 µM (786-0): 100%
- GI50 (HCT-116): 420 nM
- LC50 (HCT-116): 5.18 µM
- TGI (HCT-116): 1790 nM
- growth at 1 µM (DU-145 [11]): 87%
- GI50 (SK-MEL-5 [12]): 1580 nM
- LC50 (concentration killing 50% of cells) (SK-MEL-5 [12]): 5.44 µM
- TGI (SK-MEL-5 [12]): 2930 nM
- growth at 100 µM (UACC-62): -80%
- GI50 (UO-31): 1270 nM
- LC50 (UO-31): 5.29 µM
- TGI (UO-31): 2590 nM
- growth at 1 µM (COLO 205 [13]): 89%
- growth at 0.1 µM (NCI-H460): 100%
- growth at 100 µM (Malme-3M [14]): -62%
- growth at 10 µM (NCI-H226): -8%
- growth at 0.01 µM (KM12 [15]): 99%
- GI50 (NCI-H522): 1330 nM
- LC50 (NCI-H522): 5.39 µM
- TGI (NCI-H522): 2680 nM
- growth at 1 µM (CCRF-CEM): 14%

Structure (SMILES): COc1cc2c(cc1OC)C(=O)/C(=C/c1cc(-c3ccc4c(c3)OCO4)n[nH]1)C2
- GI50 (Malme-3M [1]): 1740 nM
- LC50 (Malme-3M [1]): 7.43 µM
- TGI (Malme-3M [1]): 3.6 µM
- growth at 0.1 µM (SF-268): 96%
- growth at 1 µM (RXF 393): 80%
- GI50 (MDA-MB-435): 1730 nM
- LC50 (MDA-MB-435): 6.18 µM
- TGI (MDA-MB-435): 3.27 µM
- GI50 (DU-145 [2]): 1450 nM
- TGI (DU-145 [2]): 2.86 µM
- CC50 (DU-145 [2]): 5.64 µM
- growth at 100 µM (COLO 205 [3]): -88%
- growth at 0.01 µM (HOP-62): 92%
- growth at 10 µM (TK-10 [4]): -95%
- growth at 0.01 µM (MCF7): 96%
- growth at 0.01 µM (RPMI-8226): 100%
- growth at 10 µM (NCI-H23): -63%
- growth at 0.1 µM (TK-10 [5]): 88%
- GI50 (MDA-MB-468): 1070 nM
- LC50 (MDA-MB-468): 5.44 µM
- TGI (MDA-MB-468): 2410 nM
- growth at 0.01 µM (OVCAR-3): 101%
- growth at 0.1 µM (SK-MEL-28): 101%
- growth at 0.1 µM (SK-MEL-5 [6]): 93%
- growth at 1 µM (MDA-MB-231): 88%
- growth at 100 µM (T47D): -93%
- growth at 1 µM (NCI-H322M [7]): 82%
- growth at 10 µM (DU-145 [8]): -92%
- GI50 (NCI-H322M [9]): 1540 nM
- TGI (NCI-H322M [9]): 3.01 µM
- CC50 (NCI-H322M [9]): 5.87 µM
- growth at 1 µM (KM12 [10]): 67%
- growth at 0.01 µM (786-0): 96%
- GI50 (HCT-116): 1030 nM
- LC50 (HCT-116): 6.31 µM
- TGI (HCT-116): 2540 nM
- growth at 1 µM (DU-145 [11]): 77%
- GI50 (SK-MEL-5 [12]): 1890 nM
- LC50 (concentration killing 50% of cells) (SK-MEL-5 [12]): 5.61 µM
- TGI (SK-MEL-5 [12]): 3060 nM
- growth at 100 µM (UACC-62): -88%
- GI50 (UO-31): 1290 nM
- LC50 (UO-31): 5.51 µM
- TGI (UO-31): 2670 nM
- growth at 1 µM (COLO 205 [13]): 94%
- growth at 0.1 µM (NCI-H460): 101%
- growth at 100 µM (Malme-3M [14]): -81%
- growth at 10 µM (NCI-H226): -72%
- growth at 0.01 µM (KM12 [15]): 100%
- GI50 (NCI-H522): 250 nM
- LC50 (NCI-H522): 3.92 µM
- TGI (NCI-H522): 871 nM
- growth at 1 µM (CCRF-CEM): 55%
